Data: patent publication US8138145B2, “Hybrid oligomers, their preparation process and pharmaceutical compositions containing them” (Centre National de la Recherche Scientifique (SNRS), priority 2005, dated 2012)
In brackets after ≈: the same amount, converted by molar mass.

How the values were obtained:
Assay type in all cases: cell-based
[1] = test system: Escherichia Coli ATCC 25922; conditions: Mueller-Hinton broth, 37° C., 18 to 20 hours; for Minimal bactericidal concentration, Escherichia Coli ATCC 25922: plate counting on sheep blood agar
Description: (§1) Four strains were selected: Escherichia Coli ATCC 25922, Staphylococcus Aureus ATCC 25923, Pseudomonas Aeruginosa ATCC 27853 and a clinical isolated methicillin resistant Staphylococcus Aureus strain. Antibacterial activity of the molecules was tested by dilution method in Mueller-Hinton broth in order to determine the minimal inhibitory concentration (MIC) and the minimal bactericidal concentration (MBC). At least two independent assays were done. Stock solutions were obtained by solubilizing molecule powders in distilled water at concentration of 2.56 mg/mL and serial 2-fold diluted solutions were prepared. Bacterial inoculum was standardized by using direct suspensions of colonies from overnight growth in saline adjusted to a turbidity matching the 0.5 McFarland standard, and diluted to obtain a density comprised between 10^5 CFU/mL and 10^7 CFU/mL. Tubes containing 900 μL of inoculum with 100 μL of molecules solutions were incubated in air at 37° C. for 18 to 20 hours. Purity and inoculum density as well as percentage of viable bacteria in limpid tubes were checked by plate counting on sheep blood agar. Broth not containing any molecule solution was inoculated with each selected bacterial strain as a control for organism viability (growth control). The susceptibility of S. Aureus strains against vancomycin was used as an internal control as well as the activity of melittin.

[2] = test system: Pseudomonas Aeruginosa ATCC 27853; conditions: Mueller-Hinton broth, 37° C., 18 to 20 hours; for Minimal bactericidal concentration, Pseudomonas Aeruginosa ATCC 27853: plate counting on sheep blood agar
Description: as §1

[3] = test system: Staphylococcus Aureus ATCC 25923; assay: microbe, parasite or virus in culture; conditions: for Minimal inhibitory concentration, Staphylococcus Aureus ATCC / Minimal bactericidal concentration, Staphylococcus Aureus ATCC: Mueller-Hinton broth, 37° C., 18 to 20 hours; for Minimal bactericidal concentration, Staphylococcus Aureus ATCC: plate counting on sheep blood agar
Description: as §1

[4] = test system: clinical isolated methicillin resistant Staphylococcus Aureus strain; assay: microbe, parasite or virus in culture; conditions: Mueller-Hinton broth, 37° C., 18 to 20 hours; for Minimal bactericidal concentration, clinical isolated methicillin resistant Staphylococcus Aureus strain: plate counting on sheep blood agar
Description: as §1

| Compound | Minimal inhibitory concentration, Escherichia Coli ATCC 25922 [1] [µg/mL] | Minimal bactericidal concentration, Escherichia Coli ATCC 25922 [1] [µg/mL] | Minimal inhibitory concentration, Pseudomonas Aeruginosa ATCC 27853 [2] [µg/mL] | Minimal bactericidal concentration, Pseudomonas Aeruginosa ATCC 27853 [2] [µg/mL] | Minimal inhibitory concentration, Staphylococcus Aureus ATCC [3] [µg/mL] | Minimal bactericidal concentration, Staphylococcus Aureus ATCC [3] [µg/mL] | Minimal inhibitory concentration, clinical isolated methicillin resistant Staphylococcus Aureus strain [4] [µg/mL] | Minimal bactericidal concentration, clinical isolated methicillin resistant Staphylococcus Aureus strain [4] [µg/mL] | MIC ([3]; Staphylococcus aureus, ATCC25923, read-out: Minimal inhibitory concentration, Staphylococcus Aureus ATCC) [µg/mL] | MIC ([4]; Staphylococcus aureus, read-out: Minimal inhibitory concentration, clinical isolated methicillin resistant Staphylococcus Aureus strain) [µg/mL] |
| --- | --- | --- | --- | --- | --- | --- | --- | --- | --- | --- |
| CC(C)NC(=O)N[C@H](CNC(=O)N[C@@H](CCCCN)CNC(=O)N[C@H](CNC(=O)N[C@H](CNC(=O)N[C@@H](CCCCN)CNC(=O)N[C@H](CNC(=O)N[C@@H](CCCCN)CNC(=O)N[C@H](CCC(N)=O)C(C)C)Cc1c[nH]c2ccccc12)C(C)C)Cc1c[nH]c2ccccc12)C(C)C [Mol-4] | 32 (≈ 23.1 µM) | 64 (≈ 46.1 µM) | 128 (≈ 92.2 µM) | 256 (≈ 184 µM) | 8 (≈ 5.76 µM) | <16 | 16 (≈ 11.5 µM) | 64 (≈ 46.1 µM) | – | – |
| CC[C@H](C)[C@H](NC(=O)CN)C(=O)NCC(=O)N[C@@H](C)C(=O)N[C@H](C(=O)N[C@@H](CC(C)C)C(=O)N[C@@H](CCCCN)C(=O)N[C@H](C(=O)N[C@@H](CC(C)C)C(=O)N[C@H](C(=O)N[C@H](C(=O)NCC(=O)N[C@@H](CC(C)C)C(=O)N1CCC[C@H]1C(=O)N[C@@H](C)C(=O)N[C@@H](CC(C)C)C(=O)N[C@H](C(=O)N[C@@H](CO)C(=O)N[C@@H](Cc1c[nH]c2ccccc12)C(=O)N[C@H](C(=O)N[C@@H](CCCCN)C(=O)N[C@@H](CCCNC(=N)N)C(=O)N[C@@H](CCCCN)C(=O)N[C@@H](CCCNC(=N)N)C(=O)N[C@@H](CCC(N)=O)C(=O)N[C@@H](CCC(N)=O)C(N)=O)[C@@H](C)CC)[C@@H](C)CC)[C@@H](C)O)[C@@H](C)O)C(C)C)C(C)C [mellitin, reference compound] | – | >256 | >256 | >256 | – | – | 32 (≈ 11.2 µM) | 128 (≈ 45 µM) | – | – |
| CN[C@H](CC(C)C)C(=O)N[C@H]1C(=O)N[C@@H](CC(N)=O)C(=O)N[C@H]2C(=O)N[C@H]3C(=O)N[C@H](C(=O)N[C@H](C(=O)O)c4cc(O)cc(O)c4-c4cc3ccc4O)[C@H](O)c3ccc(c(Cl)c3)Oc3cc2cc(c3O[C@@H]2O[C@H](CO)[C@@H](O)[C@H](O)[C@H]2O[C@H]2C[C@](C)(N)[C@H](O)[C@H](C)O2)Oc2ccc(cc2Cl)[C@H]1O [vancomycin, reference compound] | – | – | – | – | – | – | – | – | 2 (≈ 1.38 µM) | 1 (≈ 0.69 µM) |
| CC(C)NC(=O)N[C@H](CNC(=O)N[C@@H](CCCCN)CNC(=O)N[C@H](CNC(=O)N[C@H](CNC(=O)N[C@@H](CCCCN)CNC(=O)N[C@H](CNC(=O)N[C@@H](CCCCN)CNC(N)=O)Cc1c[nH]c2ccccc12)C(C)C)Cc1c[nH]c2ccccc12)C(C)C [Mol-8] | 32 (≈ 25.4 µM) | 256 (≈ 203 µM) | 64 (≈ 50.8 µM) | >256 | 32 (≈ 25.4 µM) | 32 (≈ 25.4 µM) | – | – | – | – |
